Test results taken from ChEMBL document CHEMBL1201862, “PubChem BioAssay data set” (2004).
Active and inactive are the calls of the source.

Assays:
Coagulation factor XII = biological target: T1, Coagulation factor XII (Homo sapiens, UniProt P00748); assay type: functional;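 further: activated factor XIIa alpha cleaving a fluorogenic AMC peptide substrate; inhibitor potency from loss of enzyme activity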
T1 sequence (P00748 whole entry): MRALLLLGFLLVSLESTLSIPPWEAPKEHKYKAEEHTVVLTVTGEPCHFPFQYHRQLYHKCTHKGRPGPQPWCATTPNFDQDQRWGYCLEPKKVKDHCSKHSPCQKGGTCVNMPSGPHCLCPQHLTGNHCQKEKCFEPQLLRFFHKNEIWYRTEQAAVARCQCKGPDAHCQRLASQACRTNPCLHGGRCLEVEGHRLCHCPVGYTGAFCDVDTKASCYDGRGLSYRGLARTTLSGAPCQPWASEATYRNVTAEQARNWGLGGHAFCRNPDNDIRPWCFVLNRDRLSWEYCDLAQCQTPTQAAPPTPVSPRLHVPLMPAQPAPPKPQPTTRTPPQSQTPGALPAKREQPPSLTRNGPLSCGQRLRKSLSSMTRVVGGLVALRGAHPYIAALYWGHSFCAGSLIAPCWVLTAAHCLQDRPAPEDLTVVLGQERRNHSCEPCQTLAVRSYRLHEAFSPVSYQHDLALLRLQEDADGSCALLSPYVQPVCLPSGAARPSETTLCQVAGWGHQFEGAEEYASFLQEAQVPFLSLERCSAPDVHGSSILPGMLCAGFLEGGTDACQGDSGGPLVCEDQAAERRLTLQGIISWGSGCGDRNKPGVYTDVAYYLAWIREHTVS

Aminopeptidase N = biological target: T2, Aminopeptidase N (Plasmodium falciparum FcB1/Columbia, UniProt O96935); assay: malaria alanyl aminopeptidase activity blockers – biochemical, fluorogenic H-Leu-NHMec substrate, 1536-well (AID 1445); parameters: species or system Plasmodium falciparum 3D7, 3D7
T2 sequence (O96935 whole entry): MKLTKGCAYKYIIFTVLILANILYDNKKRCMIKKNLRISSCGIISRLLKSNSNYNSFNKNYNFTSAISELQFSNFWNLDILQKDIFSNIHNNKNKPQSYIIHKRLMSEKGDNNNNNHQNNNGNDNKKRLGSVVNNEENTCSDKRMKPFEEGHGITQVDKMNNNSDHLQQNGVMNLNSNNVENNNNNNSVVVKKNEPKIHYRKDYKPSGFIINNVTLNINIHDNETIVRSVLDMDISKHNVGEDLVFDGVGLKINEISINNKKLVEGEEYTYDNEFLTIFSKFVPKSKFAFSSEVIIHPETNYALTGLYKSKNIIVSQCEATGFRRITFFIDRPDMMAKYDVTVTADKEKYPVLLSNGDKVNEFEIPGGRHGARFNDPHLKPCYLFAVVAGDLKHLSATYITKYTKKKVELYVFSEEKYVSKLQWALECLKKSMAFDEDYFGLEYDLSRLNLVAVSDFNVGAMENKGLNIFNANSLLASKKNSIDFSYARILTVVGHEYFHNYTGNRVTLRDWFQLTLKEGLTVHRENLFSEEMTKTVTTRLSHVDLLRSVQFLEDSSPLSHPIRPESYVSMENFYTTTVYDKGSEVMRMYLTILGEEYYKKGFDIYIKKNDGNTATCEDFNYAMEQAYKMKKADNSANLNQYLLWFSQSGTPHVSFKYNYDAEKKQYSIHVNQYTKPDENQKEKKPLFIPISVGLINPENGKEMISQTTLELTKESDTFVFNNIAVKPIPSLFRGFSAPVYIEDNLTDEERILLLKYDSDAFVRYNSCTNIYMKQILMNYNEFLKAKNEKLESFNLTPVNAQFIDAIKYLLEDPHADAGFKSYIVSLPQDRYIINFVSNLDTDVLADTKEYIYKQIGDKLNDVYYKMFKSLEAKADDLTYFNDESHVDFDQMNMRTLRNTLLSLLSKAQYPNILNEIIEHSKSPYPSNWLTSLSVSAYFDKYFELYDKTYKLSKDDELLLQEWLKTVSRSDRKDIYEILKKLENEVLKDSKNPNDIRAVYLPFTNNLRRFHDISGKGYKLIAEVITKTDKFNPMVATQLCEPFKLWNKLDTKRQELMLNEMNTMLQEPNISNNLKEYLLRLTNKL

[1] = biological target: Peroxisome proliferator-activated receptor gamma/Nuclear receptor coactivator 1 (Homo sapiens, UniProt P37231); assay: (§1) TR-FRET dose response biochemical High Throughput Screening assay for agonists of the steroid receptor coactivator 1 (SRC-1) recruitment by the peroxisome proliferator-activated receptor gamma (PPAR gamma): non-selective agonists. [Related pubchem assays (depositor defined):AID1300, AID1808, AID504735, AID631]; assay type: protein assay
[2] = biological target: Peroxisome proliferator-activated receptor gamma/Nuclear receptor coactivator 3 (Homo sapiens, UniProt P37231); assay: as §1, with “3 (SRC-3)” for “1 (SRC-1)”, “assays: 1301 (Confirmation screen.), 1048 (Primary screen.)]” for “assays (depositor defined):AID1300, AID1808, AID504735, AID631]”; assay type: functional
[3] = biological target: Peroxisome proliferator-activated receptor gamma/Nuclear receptor coactivator 2 (Homo sapiens, UniProt P37231); assay: TR-FRET dose response biochemical High Throughput Screening assay for agonists of the steroid receptor coactivator 2 (SRC-2) recruitment by the peroxisome proliferator-activated receptor gamma (PPAR gamma): non-selective agonists. [Related pubchem assays: 1297, 1032 ]; assay type: functional
[4] = biological target: Eukaryotic translation initiation factor 4E (Mus musculus, UniProt P63073); assay: blockers of eIF4G binding by eIF4E – biochemical, TR-FRET, dose response (AID 855); assay type: functional;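 further: potency for disrupting eIF4E binding to eIF4GI seen as loss of FRET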
Chain of Eukaryotic translation initiation factor 4E (P63073 whole entry): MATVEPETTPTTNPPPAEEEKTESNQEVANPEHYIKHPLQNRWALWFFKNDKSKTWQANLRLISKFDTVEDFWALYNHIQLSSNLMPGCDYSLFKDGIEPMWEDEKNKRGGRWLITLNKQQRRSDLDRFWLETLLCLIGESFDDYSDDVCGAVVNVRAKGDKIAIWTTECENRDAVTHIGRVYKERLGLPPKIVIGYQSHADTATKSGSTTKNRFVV

[5] = alpha-synuclein stem-loop luciferase translation blockers – H4 neuroglioma cells, luminescence, confirmation (AID 1988); assay type: functional, cell-based
H9c2 = assay: cells; assay type: functional, cell-based; conditions: Rattus norvegicus, H9c2, Myocardium
[6] = luciferase reporter signal suppression in cells – H4 neuroglioma cells, luminescence, dose response (AID 1990); assay type: functional, cell-based
[7] = Luminescence Cell-Based Dose Response HTS to Identify Inhibitors of 5'UTR Stem-Loop Driven Prion Protein mRNA Translation in H4 Neuroglioblastoma Cells. [Related pubchem assays: 1827 (Project Summary), 1813 (Primary HTS)]; assay type: functional
[8] = HEK-293T cell viability reduction – luminescence, B-cell screen hits, cytotoxicity control for BCR NF-kB inhibitor project, dose response (AID 489021); assay type: functional, cell-based;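 further: HEK-293T cells carrying an NF-kB luciferase reporter; cells exposed to compound for about 14 hours before viability readout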
[9] = biological target: T3, Zinc finger protein mex-5 (Caenorhabditis elegans, UniProt Q9XUB2); assay: potency of MEX-5 RNA-binding blockers – biochemical, C. elegans, fluorescence polarization, dose response (AID 1960)
T3 sequence (Q9XUB2 whole entry): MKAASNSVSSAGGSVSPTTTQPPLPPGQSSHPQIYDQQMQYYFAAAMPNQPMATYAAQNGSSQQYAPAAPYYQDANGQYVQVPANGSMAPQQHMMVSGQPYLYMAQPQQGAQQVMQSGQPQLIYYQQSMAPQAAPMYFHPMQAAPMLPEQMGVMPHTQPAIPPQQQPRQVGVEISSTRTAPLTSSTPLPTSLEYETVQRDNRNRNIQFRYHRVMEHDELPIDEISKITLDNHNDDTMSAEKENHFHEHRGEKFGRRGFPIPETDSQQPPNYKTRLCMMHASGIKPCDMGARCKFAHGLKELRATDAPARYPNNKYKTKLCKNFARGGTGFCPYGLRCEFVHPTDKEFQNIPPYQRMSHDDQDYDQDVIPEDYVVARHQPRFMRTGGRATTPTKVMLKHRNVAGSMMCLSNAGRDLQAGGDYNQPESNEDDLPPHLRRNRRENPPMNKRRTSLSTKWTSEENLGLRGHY

[10] = biological target: T4, RNA-binding protein pos-1 (Caenorhabditis elegans, UniProt G5EF15); assay: disruptors of C. elegans POS-1 RNA interaction – biochemical, fluorescence polarization, dose response (AID 1964);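 further: purified POS-1 fused to maltose binding protein made in E. coli; potency of compounds blocking POS-1 binding to fluorescent RNA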
T4 sequence (G5EF15 whole entry): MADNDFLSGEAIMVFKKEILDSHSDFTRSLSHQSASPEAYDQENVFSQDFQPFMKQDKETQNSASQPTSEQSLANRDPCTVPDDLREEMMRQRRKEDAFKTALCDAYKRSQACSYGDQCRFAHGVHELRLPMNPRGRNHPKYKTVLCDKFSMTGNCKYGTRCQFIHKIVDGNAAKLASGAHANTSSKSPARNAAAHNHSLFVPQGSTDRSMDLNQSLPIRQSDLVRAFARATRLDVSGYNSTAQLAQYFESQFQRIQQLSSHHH

HeLa = assay: viability loss in HeLa cells – cell-based, 24 h, cherry-picked samples, cytotoxicity control, dose response (AID 504726); assay type: functional; conditions: Homo sapiens;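 further: potency for cytotoxicity as loss of luminescence signal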
[11] = biological target: G-protein coupled receptor 55 (Homo sapiens, UniProt Q9Y2T6); assay: selective activators of receptor GPR55 – imaging, U2OS cells, beta-arrestin-GFP redistribution, primary screen (AID 1961); assay type: functional
Chain of G-protein coupled receptor 55 (Q9Y2T6 whole entry): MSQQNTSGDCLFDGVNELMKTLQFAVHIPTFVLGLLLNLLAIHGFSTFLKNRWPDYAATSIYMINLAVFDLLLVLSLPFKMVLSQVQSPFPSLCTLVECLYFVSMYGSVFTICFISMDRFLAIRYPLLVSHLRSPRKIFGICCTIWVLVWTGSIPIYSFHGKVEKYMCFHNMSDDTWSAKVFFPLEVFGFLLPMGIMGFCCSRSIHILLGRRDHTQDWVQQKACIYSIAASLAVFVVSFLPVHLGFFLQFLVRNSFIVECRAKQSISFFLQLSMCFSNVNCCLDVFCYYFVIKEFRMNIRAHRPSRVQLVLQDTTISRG

[12] = biological target: T5, Voltage-gated N-type calcium channel alpha-1B subunit/Amyloid beta A4 precursor protein-binding family A member 1 (Homo sapiens, UniProt Q00975+Q02410); assay type: protein assay
T5 sequence (Q00975 whole entry): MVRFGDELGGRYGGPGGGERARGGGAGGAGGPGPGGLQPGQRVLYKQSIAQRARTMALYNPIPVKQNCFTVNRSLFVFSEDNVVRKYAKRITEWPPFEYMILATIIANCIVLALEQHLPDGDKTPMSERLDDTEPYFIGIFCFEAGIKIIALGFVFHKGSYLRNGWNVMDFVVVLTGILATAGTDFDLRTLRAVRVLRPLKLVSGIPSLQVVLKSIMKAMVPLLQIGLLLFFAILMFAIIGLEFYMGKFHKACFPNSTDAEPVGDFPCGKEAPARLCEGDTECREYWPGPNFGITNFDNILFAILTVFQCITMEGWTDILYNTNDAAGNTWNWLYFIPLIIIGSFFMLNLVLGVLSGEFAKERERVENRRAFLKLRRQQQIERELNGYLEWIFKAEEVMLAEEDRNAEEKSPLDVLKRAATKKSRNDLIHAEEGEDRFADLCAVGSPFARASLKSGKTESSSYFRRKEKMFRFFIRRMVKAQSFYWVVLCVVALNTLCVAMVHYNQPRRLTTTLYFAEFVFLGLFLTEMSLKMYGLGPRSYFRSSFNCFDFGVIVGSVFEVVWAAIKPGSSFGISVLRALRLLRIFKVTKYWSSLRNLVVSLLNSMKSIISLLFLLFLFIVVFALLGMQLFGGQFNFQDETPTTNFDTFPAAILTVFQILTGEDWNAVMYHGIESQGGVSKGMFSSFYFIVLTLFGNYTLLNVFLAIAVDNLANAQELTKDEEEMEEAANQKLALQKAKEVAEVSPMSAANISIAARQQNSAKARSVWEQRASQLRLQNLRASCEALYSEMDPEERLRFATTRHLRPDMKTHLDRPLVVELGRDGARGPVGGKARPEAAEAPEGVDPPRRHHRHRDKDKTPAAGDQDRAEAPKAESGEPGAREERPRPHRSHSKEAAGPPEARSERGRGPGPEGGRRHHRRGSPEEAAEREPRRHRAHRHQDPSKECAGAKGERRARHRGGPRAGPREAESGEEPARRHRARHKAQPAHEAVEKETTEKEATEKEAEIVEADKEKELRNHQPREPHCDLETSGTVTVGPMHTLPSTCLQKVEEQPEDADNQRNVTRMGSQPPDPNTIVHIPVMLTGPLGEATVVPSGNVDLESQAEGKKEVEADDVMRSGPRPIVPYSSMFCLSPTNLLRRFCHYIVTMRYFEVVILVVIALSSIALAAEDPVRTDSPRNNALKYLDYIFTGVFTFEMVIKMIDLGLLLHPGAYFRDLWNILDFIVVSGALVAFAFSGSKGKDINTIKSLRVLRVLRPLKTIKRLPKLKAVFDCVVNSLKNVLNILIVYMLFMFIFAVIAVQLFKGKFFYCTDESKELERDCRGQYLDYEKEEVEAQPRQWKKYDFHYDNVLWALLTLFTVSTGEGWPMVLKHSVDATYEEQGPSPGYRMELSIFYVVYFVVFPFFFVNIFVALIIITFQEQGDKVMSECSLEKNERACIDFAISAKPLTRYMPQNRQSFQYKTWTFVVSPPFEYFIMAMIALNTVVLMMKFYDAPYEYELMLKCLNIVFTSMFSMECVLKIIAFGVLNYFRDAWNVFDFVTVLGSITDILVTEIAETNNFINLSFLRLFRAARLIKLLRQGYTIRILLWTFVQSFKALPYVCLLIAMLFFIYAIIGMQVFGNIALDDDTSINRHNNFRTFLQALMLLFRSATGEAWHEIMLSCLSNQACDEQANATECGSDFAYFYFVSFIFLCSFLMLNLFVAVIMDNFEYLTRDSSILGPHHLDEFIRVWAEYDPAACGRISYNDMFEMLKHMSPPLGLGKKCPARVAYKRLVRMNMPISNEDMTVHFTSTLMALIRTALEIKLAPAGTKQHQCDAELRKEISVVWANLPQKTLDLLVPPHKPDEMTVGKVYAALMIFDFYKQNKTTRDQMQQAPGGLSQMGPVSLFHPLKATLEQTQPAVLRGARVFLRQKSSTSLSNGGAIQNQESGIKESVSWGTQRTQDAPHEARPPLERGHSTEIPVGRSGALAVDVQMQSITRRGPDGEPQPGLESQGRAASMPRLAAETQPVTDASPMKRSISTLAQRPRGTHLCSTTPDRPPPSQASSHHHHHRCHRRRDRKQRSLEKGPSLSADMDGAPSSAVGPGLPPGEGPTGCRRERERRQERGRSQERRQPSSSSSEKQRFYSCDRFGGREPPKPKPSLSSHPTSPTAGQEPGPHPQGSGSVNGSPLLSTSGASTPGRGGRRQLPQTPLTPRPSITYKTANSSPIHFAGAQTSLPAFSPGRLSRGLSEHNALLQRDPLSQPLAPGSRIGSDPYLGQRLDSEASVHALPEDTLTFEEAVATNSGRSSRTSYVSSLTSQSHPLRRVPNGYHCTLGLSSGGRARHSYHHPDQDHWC
T5 sequence (Q02410 whole entry): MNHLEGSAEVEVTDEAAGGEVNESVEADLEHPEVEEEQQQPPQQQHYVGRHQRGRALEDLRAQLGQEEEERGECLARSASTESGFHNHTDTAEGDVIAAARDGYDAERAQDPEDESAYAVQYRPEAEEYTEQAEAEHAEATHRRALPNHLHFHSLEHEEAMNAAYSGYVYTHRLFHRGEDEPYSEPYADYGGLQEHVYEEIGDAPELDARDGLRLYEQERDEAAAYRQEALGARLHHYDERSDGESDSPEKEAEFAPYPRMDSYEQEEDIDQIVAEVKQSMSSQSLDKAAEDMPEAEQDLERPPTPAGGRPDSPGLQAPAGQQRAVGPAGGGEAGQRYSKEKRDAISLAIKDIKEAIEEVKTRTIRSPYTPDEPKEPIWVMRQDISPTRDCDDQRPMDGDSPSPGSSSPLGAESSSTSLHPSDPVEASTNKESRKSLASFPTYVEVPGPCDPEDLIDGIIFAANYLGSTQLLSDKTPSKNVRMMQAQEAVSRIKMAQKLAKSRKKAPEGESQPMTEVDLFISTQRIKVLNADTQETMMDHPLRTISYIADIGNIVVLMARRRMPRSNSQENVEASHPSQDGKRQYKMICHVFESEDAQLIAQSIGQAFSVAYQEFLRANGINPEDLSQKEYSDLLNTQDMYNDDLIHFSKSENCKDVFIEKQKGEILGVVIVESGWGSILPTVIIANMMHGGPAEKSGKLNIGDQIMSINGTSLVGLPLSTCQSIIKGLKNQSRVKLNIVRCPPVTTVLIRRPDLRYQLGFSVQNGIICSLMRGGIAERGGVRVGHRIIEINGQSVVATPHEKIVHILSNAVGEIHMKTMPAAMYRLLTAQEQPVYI

[13] = biological target: T5, Voltage-gated N-type calcium channel alpha-1B subunit/Amyloid beta A4 precursor protein-binding family A member 1; assay type: protein assay; remark: listed apart in the source
HEK293 [14] = assay: cells; conditions: Homo sapiens
HEK293 [15] = assay: cells; conditions: Homo sapiens; remark: listed apart in the source

## CCOC(=O)c1cn(Cc2ccccc2)nn1
Coagulation factor XII
  IC50: > 50 µM (inactive)

## O=C(/C=C/c1cccs1)NC(=S)Nc1ccc(C(=O)O)cc1
Aminopeptidase N
  IC50: 28.8 µM (active)

## O=C(C1=C(O)C(=O)N(CCCN2CCOCC2)C1c1ccncc1)c1cc2ccccc2o1 (stereo unspecified)
[1]
  EC50: > 79.4 µM (inactive)
[2]
  EC50: > 79.4 µM (not active)
[3]
  EC50: > 79.4 µM (not active)

## Cc1ccccc1CSc1nncn1N
[4]
  IC50: > 64 µM (inactive)

## CCOC(=O)C1=NN(C(=O)c2cccc(Br)c2)C(O)(C(C)(C)C)C1 (stereo unspecified)
Aminopeptidase N
  IC50: 44 µM (active)

## COc1cc(OC)cc(-c2cc3nc(C)c(CCC(=O)Nc4nc(C)cs4)c(C)n3n2)c1
[5]
  EC50: 24.2 µM (active)
H9c2
  IC50: > 79 µM (inactive)
[6]
  EC50: 16.9 µM (active)
[7]
  EC50: 13.2 µM (active)
[8]
  IC50: > 80 µM (inactive)

## CCN1/C(=C2/SC(=S)N(NC(C)=O)C2=O)Sc2ccc(OC)cc21
[9]
  EC50: > 300 µM (not active)
[10]
  EC50: > 300 µM (not active)
HeLa
  AC50: 122 µM (active)

## CCc1cccc(OCC(=O)Nc2cc(S(=O)(=O)N3CCOCC3)ccc2N2CCCC2)c1
[11]
  EC50: 4.03 µM (active)

## O=c1oc2c(CN3CCCCC3)c(O)ccc2c2c1CCCC2
Aminopeptidase N
  IC50: 65.3 µM (active)

## COC(=O)c1ccc(OCC(O)CN2CCC(C)CC2)cc1 (stereo unspecified)
HeLa
  AC50: 124 µM (active)

## O=C(CC1CCCCC1)NCC1CCCO1 (stereo unspecified)
[4]
  IC50: > 64 µM (inactive)

## COc1ccc(C(=O)NC(=S)Nc2ccc(NC(=O)c3ccco3)cc2)cc1[N+](=O)[O-]
[12]
  IC50: > 50 µM (inactive)
[13]
  IC50: 11.9 µM (active)

## CCc1cc2c(=O)c(Oc3ccccc3F)c(C)oc2c(CN(C)C)c1O
[12]
  IC50: > 50 µM (inactive)
[13]
  IC50: 1.5 µM (active)

## COc1ccc(CCNC(=O)Cn2cnc3c(cnn3-c3ccccc3Cl)c2=O)cc1OC
[4]
  IC50: > 64 µM (inactive)

## Fc1ccc(-c2csc3ncnc(Nc4ccc(N5CCOCC5)cc4)c23)cc1
HEK293 [14]
  EC50: > 59.6 µM (inactive)
HEK293 [15]
  EC50: > 59.6 µM (inactive)

## COC(=O)c1ccc(C2C(C(=O)c3cc4ccccc4o3)=C(O)C(=O)N2CCCN(C)C)cc1 (stereo unspecified)
[1]
  EC50: > 79.4 µM (inactive)
[2]
  EC50: > 79.4 µM (not active)
[3]
  EC50: 51.9 µM (not active)

## CN1CCN(c2ncnc(Cl)c2N)CC1
Coagulation factor XII
  IC50: > 50 µM (inactive)

## O=C(O/N=C(\c1ccccc1)c1ccccn1)c1cccc2ccccc12
[11]
  EC50: > 32 µM (inactive)
